From patent US10183931B2, “Rho kinase inhibitors” (priority 2012, dated 2019) come the findings set out here.

One experiment addresses ROCK1 (Homo sapiens (Human), UniProt Q13464). Particulars: read-out: ROCK1 IC50; Z′-LYTE, 5 uM ATP.
A further experiment has as its target ROCK2 (Homo sapiens (Human), UniProt O75116). Particulars: read-out: ROCK2 IC50; Z′-LYTE, 12 uM ATP.
Experiment [1] has as its system human CD4+ T cells. Put plainly: cytokine secretion by anti-CD3/CD28 stimulated CD4+ T cells in vitro. Particulars: anti-CD3/CD28 stimulation. Format: cell-based.
The test system of experiment [2] is human CD4+ T cells. Briefly: T cell proliferation in response to TCR stimulation in vitro. The class given is cell-based.
Experiment [3] relates to CD4+ T cells from RA patients. Briefly: cytokine secretion ex vivo by CD3/CD28 stimulated CD4+ T cells from RA patients. The class given is cell-based, human.
For the next experiment, the system named is human Tregs. Briefly: Treg suppression of IL-17 secretion in CD4+CD25- effector T cells. Format: cell-based. Particulars: Tregs treated 3 hours; Treg:Teff 1:4 and 1:9.
The test system of experiment [4] is TGF-β-induced phosphorylation. Briefly: TGF-β-induced phosphorylation of STAT3, MLC and SMAD2/3 in Tregs. Format: cell-based, human.
For experiment [5], the system named is human CD4+ T cells. Put plainly: Foxp3+ cells among CD4+ T cells after Th17 skewing activation. The class given is cell-based. Particulars: 5 days Th17 skewing activation.
The subject of the next experiment is STAT3 phosphorylation. Briefly: STAT3 phosphorylation in T cells. Format: cell-based, human.
[6] abbreviates: RA patients, ex vivo, TCR stimulation.

Broadly, the IC50 is the midpoint of a concentration-inhibition curve.

Entries after “also recorded” stand apart in the source; their conditions may differ.

Sequence of ROCK1 (Q13464 1-535 limits assumed): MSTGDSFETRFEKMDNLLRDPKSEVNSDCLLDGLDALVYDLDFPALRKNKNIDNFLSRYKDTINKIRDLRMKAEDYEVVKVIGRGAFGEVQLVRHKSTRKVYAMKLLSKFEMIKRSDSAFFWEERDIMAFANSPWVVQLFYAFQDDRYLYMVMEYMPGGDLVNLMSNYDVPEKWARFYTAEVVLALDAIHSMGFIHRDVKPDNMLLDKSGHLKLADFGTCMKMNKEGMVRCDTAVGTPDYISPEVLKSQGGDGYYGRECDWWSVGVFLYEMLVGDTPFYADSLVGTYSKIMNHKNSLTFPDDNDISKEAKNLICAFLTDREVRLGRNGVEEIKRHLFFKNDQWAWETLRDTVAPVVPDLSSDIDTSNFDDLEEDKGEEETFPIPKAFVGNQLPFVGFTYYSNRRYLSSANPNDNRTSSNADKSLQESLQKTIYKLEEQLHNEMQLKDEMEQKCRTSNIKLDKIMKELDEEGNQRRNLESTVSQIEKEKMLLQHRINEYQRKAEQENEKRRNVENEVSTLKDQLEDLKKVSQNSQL
Sequence of ROCK2 (O75116 5-554 limits assumed): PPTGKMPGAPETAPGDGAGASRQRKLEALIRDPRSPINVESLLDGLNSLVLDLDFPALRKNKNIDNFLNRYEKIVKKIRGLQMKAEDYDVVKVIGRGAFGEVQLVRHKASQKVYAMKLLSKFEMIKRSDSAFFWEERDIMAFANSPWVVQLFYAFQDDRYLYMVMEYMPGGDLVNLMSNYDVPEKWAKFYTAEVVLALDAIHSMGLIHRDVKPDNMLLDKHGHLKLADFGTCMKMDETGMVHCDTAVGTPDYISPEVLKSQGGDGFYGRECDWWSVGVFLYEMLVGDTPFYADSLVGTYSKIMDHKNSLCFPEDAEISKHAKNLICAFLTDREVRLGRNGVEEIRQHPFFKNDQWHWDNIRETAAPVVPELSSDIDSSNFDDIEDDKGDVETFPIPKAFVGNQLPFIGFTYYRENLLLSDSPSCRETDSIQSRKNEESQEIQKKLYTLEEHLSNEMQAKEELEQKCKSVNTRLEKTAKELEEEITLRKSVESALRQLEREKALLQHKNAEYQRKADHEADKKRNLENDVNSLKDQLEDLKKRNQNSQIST
Excerpt for ROCK1: (§1) Dose response curves for Rho-kinase inhibition were derived from a Invitrogen Z′-LYTE™ Kinase Assay Kit (Invitrogen catalog number PV3793). Purified active ROCK1 and ROCK2 were obtained from Invitrogen (catalog numbers ROCK1, PV3691 and ROCK2, PV3759). The kit components include a coumarin and fluorescein labeled peptide based on myosin light chain 2 ([sequence]), a proprietary protease containing development reagent and a proprietary Stop buffer used to terminate the development reaction. The inhibitory activities of compounds are measured according to the manufactures protocol. Briefly, decreasing concentrations of test compounds or the known ROCK inhibitor Y-27963, are added, from 10 uM to 2.56×10^−5 uM to reaction buffer containing 50 mM HEPES pH 7.5, 10 mM MgCl2, 5 mM EGTA, and 0.05% Brij-35 and of ROCK1 at 0.18 ug/mL or ROCK2 at 0.8 ug/mL in assay dilution buffer. […] STOP reagent is then added and the reaction and immediately the coumarin and fluorescein emission signals are read on a Tecan Infinite M1000 fluorescence plate reader (excitation: 400 nm; emission 445 and 520 nm, respectively). By comparing the emission ratios of the test samples against control samples, percent phosphorylation values are calculated and the concentration of inhibitor that produces 1/2 inhibition of kinase activity (IC50) is determined using Prism.
Excerpt for ROCK2: as §1

For the molecule `CC(N)c1cccc(-c2nccc(Nc3ccc4[nH]ncc4c3)n2)c1` (centres unmarked) [Example 147, N-(2-(3-(1-aminoethyl)phenyl)pyrimidin-4-yl)-1H-indazol-5-amine], the half-maximal inhibitory concentration (IC50) at ROCK1 was more than 2 µM; on ROCK2 it was more than 5.5 µM.
With `CC(C)NC(=O)COc1cccc(-c2nc(Nc3ccc4[nH]ncc4c3)cc(C(F)(F)F)n2)c1` [Example 169], the IC50 on ROCK1 and on ROCK2 was more than 10 µM throughout.
`CC(C)NC(=O)COc1cccc(-c2nc(Nc3ccc4[nH]ncc4c3)c3ccccc3n2)c1` [KD025]: in the experiment with human CD4+ T cells [1], the “inhibition of IFN-γ secretion” value is “less robust and significant only at high dose (10 μM)”; the “inhibition of IL-2 secretion” value was “observed only at the highest concentration (10 μM)”. For the same molecule, in the experiment with human CD4+ T cells [1] (dose-dependent), the IL-17 secretion result is reported as “inhibits; also recorded: significantly inhibited” and the IL-21 secretion result is on record as “inhibits; also recorded: significantly inhibited”. The “ability to proliferate in response to TCR stimulation” value in the experiment with human CD4+ T cells [2] is “inhibits; also recorded: down-regulated”. For the same molecule, the “frequencies of IL-17 and IFN-γ-producing cells” value in [3] (2 RA patients, intracellular staining) is “significantly reduced”. Besides, in experiment [3] (setting [6]), the “secretion of IFN-γ” value is on record as “inhibits; also recorded: significantly down-regulated”, the “secretion of IL-17” value is listed as “inhibits; also recorded: significantly down-regulated” and the “secretion of IL-21” value is recorded as “inhibits; also recorded: significantly down-regulated”. In the experiment on human Tregs, the “ability of Tregs to suppress IL-17 secretion in CD4+CD25- effector T cells” value is listed as “significantly increased”. For the same molecule, in experiment [4], the “phosphorylation of SMAD2/3” value was “remains intact”. For the same molecule, in experiment [4] (dose-dependent), the “TGF-β-induced MLC phosphorylation” value is listed as “down-regulates” and the “TGF-β-induced STAT3 phosphorylation” value is “down-regulates”. In addition, the “percentage of Foxp3+ cells” value in the experiment on human CD4+ T cells [5] was “significantly increased”. Further, the “phosphorylation of STAT3” value with STAT3 phosphorylation (T cells, two experimental designs) is reported as “inhibits; also recorded: significantly down-regulates”. Also, in the experiment on STAT3 phosphorylation (Th17-skewing conditions 5 days, then treatment 3 hours), the STAT3 phosphorylation entry is “reduced”.
